Measurements published in US7282512B2, “Cycloalkyl ketoamides derivatives useful as cathepsin K inhibitors” (SmithKline Beecham Corporation, priority 2002, dated 2007).

Key:
Assay type in all cases: biochemical
human cathepsin S = human cathepsin S (Homo sapiens, UniProt P25774); assay: cathepsin S inhibition assay, fluorogenic substrate Cbz-Val-Val-Arg-AMC; details: Table 2; human recombinant enzyme, 10 μM substrate; read-out: hCat S Ki
Experimental: All assays for cathepsin K were carried out with human and rat recombinant enzyme. Assays for cathepsins S & V were also carried out with human recombinant enzyme. Assays for human cathepsins B, H, and L were carried out with enzyme, purchased from Athens Research and Technology, Inc., prepared from human liver tissue. Standard assay conditions for the determination of kinetic constants used a fluorogenic peptide substrate, typically (5S,8S)-13-amino-5-benzyl-13-imino-3-methylene-N-(4-methyl-2-oxo-2H-chromen-7-yl)-6-oxo-1-phenyl-2-oxa-4,7,12-triazatridecane-8-carboxamide (Cbz-Phe-Arg-AMC), and were determined in 100 mM sodium acetate at pH 5.5 containing 10 mM dithiothreitol and 120 mM sodium chloride. A stock substrate solution of Cbz-Phe-Arg-AMC was prepared at a concentration of 50 mM in dimethyl sulfoxide. This substrate was diluted into the assay for a final substrate concentration of 10 μM in the rat cathepsin K, human cathepsin K, and human cathepsin B assays; a final substrate concentration of 5 μM in the human cathepsin L assay; and a final substrate concentration of 2 μM in the human cathepsin V assay. […]
All assays contained 10% dimethyl sulfoxide. […] Product fluorescence (excitation at 360 nm; emission at 440 nm, (except cathepsin H which used excitation at 340 nm; emission at 420 nm)) was monitored with a PerSeptive Biosystems Cytofluor II fluorescence plate reader. […]
(§1) Potential inhibitors were evaluated using the progress curve method. […] For those compounds whose progress curves were linear, the enzymatic activity (RATE) was plotted against the concentration of test compound, including inhibitor concentration of zero ([I]=0), and the IC50 determined from a fit of equation 1 to the data, RATE=Vmax/(1+([I]/IC50)) (1) where Vmax is the best fit estimate of the maximal enzymatic activity. Ki values were calculated from IC50 values using equation 2 assuming a competitive model.

human cathepsin B = human cathepsin B (Homo sapiens, UniProt P07858); assay: cathepsin B inhibition assay, fluorogenic substrate Cbz-Phe-Arg-AMC; details: Table 2; enzyme from human liver tissue, 10 μM substrate; read-out: hCat B Ki
Experimental: (§2) All assays for cathepsin K were carried out with human and rat recombinant enzyme. Assays for cathepsins S & V were also carried out with human recombinant enzyme. Assays for human cathepsins B, H, and L were carried out with enzyme, purchased from Athens Research and Technology, Inc., prepared from human liver tissue. Standard assay conditions for the determination of kinetic constants used a fluorogenic peptide substrate, typically (5S,8S)-13-amino-5-benzyl-13-imino-3-methylene-N-(4-methyl-2-oxo-2H-chromen-7-yl)-6-oxo-1-phenyl-2-oxa-4,7,12-triazatridecane-8-carboxamide (Cbz-Phe-Arg-AMC), and were determined in 100 mM sodium acetate at pH 5.5 containing 10 mM dithiothreitol and 120 mM sodium chloride. A stock substrate solution of Cbz-Phe-Arg-AMC was prepared at a concentration of 50 mM in dimethyl sulfoxide. This substrate was diluted into the assay for a final substrate concentration of 10 μM in the rat cathepsin K, human cathepsin K, and human cathepsin B assays; a final substrate concentration of 5 μM in the human cathepsin L assay; and a final substrate concentration of 2 μM in the human cathepsin V assay.
(§3) All assays contained 10% dimethyl sulfoxide. […] All assays were conducted at 30° C. Product fluorescence (excitation at 360 nm; emission at 440 nm, (except cathepsin H which used excitation at 340 nm; emission at 420 nm)) was monitored with a PerSeptive Biosystems Cytofluor II fluorescence plate reader. Product progress curves were generated over 2.3 h monitoring the formation of 7-amino-4-methylcoumarin product (or β-naphthalamide for cathepsin H).
as §1

rat cathepsin K = biological target: T1, rat cathepsin K (Rattus norvegicus, UniProt O35186); assay: cathepsin K inhibition assay, fluorogenic substrate Cbz-Phe-Arg-AMC, progress curve method; details: Table 2; rat recombinant enzyme, 10 μM substrate; read-out: rCat K Ki
T1 construct: The proform of cathepsin K was converted to mature cathepsin K by brief exposure to pH 4; made in house; host or cells: baculovirus; Trichoplusia ni High Five cells (virus raised in Sf-9)
T1 sequence (O35186 115-329): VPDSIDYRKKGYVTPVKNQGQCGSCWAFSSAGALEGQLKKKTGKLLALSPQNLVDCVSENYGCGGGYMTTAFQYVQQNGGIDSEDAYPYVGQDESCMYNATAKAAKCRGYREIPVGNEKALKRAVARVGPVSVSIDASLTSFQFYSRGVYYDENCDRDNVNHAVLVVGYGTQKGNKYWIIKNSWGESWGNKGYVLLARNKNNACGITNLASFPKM
Experimental: as §2
as §3, with “H). […]” for “H).”
Protein Purification: Media (human and rat) were filtered through a Whatman 3 filter, and then loaded onto a 25 mL Poros HS II (26 mm×47 mm) cation exchange column equilibrated in 25 mM sodium acetate at pH 5.5 (equilibration buffer). The column was washed until the absorbance reached the baseline value, and then the protein was eluted with a linear gradient from 0-2 M sodium chloride in the equilibration buffer. Column fractions were analyzed by SDS-PAGE, N-terminal sequencing, and mass spectrometry. […]

human cathepsin L = human cathepsin L (Homo sapiens, UniProt P07711); assay: cathepsin L inhibition assay, fluorogenic substrate Cbz-Phe-Arg-AMC; details: Table 2; enzyme from human liver tissue, 5 μM substrate; read-out: hCat L Ki
Experimental: as §2, §3, §1

human cathepsin L, sequence (P07711 114-288 limits assumed): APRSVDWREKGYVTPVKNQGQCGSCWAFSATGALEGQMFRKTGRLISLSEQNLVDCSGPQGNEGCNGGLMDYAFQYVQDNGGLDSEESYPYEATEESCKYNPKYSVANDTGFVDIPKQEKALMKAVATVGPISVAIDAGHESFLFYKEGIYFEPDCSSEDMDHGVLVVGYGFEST
human cathepsin L, sequence (P07711 292-333 limits assumed): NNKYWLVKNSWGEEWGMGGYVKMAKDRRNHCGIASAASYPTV
human cathepsin S, sequence (P25774 115-331): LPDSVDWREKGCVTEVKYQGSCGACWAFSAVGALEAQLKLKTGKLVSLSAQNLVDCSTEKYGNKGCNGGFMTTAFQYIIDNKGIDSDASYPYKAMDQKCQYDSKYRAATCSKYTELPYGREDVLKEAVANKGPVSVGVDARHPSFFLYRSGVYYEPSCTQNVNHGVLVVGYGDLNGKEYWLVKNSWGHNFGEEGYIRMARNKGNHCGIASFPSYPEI

SMILES | Ki (human cathepsin S) | Ki (human cathepsin B) | Ki (rat cathepsin K) | Ki (human cathepsin L)
CCCC[C@H](NC(=O)OC1(Cc2ccccc2)CCCC1)C(=O)C(=O)N[C@@H](C)C(=O)OCc1ccccc1 [Example 3, Benzyl (2S)-2-{[(3S)-3-({[(1-benzylcyclopentyl)oxy]carbonyl}amino)-2-oxoheptanoyl]amino}propanoate] | 100 to 1000 nM | > 1000 nM | > 1000 nM | > 1000 nM
CCCC[C@H](NC(=O)OCC1(Cc2ccc(F)cc2)CCC1)C(=O)C(=O)Nc1n[nH]c2cc(Cl)ccc12 [Example 15, [1-(4-fluorobenzyl)cyclobutyl]methyl(1S)-1-[[(6-chloro-1H-indazol-3-yl)amino](oxo)acetyl]pentylcarbamate] | 1 to 10 nM | 100 to 1000 nM | 10 to 100 nM | 10 to 100 nM
CCCC[C@H](NC(=O)OC1(c2nc3ccccc3s2)CCCC1)C(=O)C(=O)Nc1ccn[nH]1 [Example 17, 1-(1,3-Benzothiazol-2-yl)cyclopentyl(1S)-1-[oxo(1H-pyrazol-3-ylamino)acetyl]pentylcarbamate] | 10 to 100 nM | > 1000 nM | 10 to 100 nM | 10 to 100 nM
